These results are taken from ChEMBL document CHEMBL5260848, “Recent advancements in the development of bioactive pyrazoline derivatives” (Eur J Med Chem, 2020).

Test [1] is filed under the species Mus musculus. Nature of the test: Antidepressant activity in Swiss albino mouse assessed as decrease in duration of immobility by tail suspension test relative to control. In kind it is functional. Also noted: scale not given: the % may be the effect or the level left.
The species named for test [2] is Mus musculus. Nature of the test: Antidepressant activity in mouse assessed as […] by tail suspension test. In kind it is functional.
The species named for test [3] is Mus musculus. Kind of test: Antianxiety activity in mouse assessed as increase in number of entries in different arms. In kind it is functional.
Test [4] is filed under the species Mus musculus. Kind of test: Antidepressant activity in mouse assessed as […] by forced swimming test. In kind it is functional.
Test [5] relates to Mus musculus. Kind of test: Antidepressant activity in Swiss albino mouse assessed as decrease in duration of immobility at 100 mg/kg, po by forced swimming test relative to control. In kind it is functional. Also noted: scale not given: the % may be the effect or the level left.
For test [6], the system named is Rattus norvegicus. Nature of the test: Antiinflammatory activity in carrageenan induced rat paw edema model assessed inhibition of TNF-alpha level. In kind it is functional, organism-based.
For the next test, the system named is A549. Nature of the test: Cytotoxicity against human A549 cells assessed as reduction in cell viability. In kind it is functional, cell-based.
The nature of test [7]: Cytotoxicity against human HPC cells assessed as reduction in cell viability incubated for 48 hrs by MTT assay. The format is functional.
In another test the test system is HSC-3. Nature of the test: Cytotoxicity against human HSC-3 cells assessed as reduction in cell viability incubated for 48 hrs by MTT assay. The format is functional.
Test [8] is described as follows: Cytotoxicity against human HGF cells assessed as reduction in cell viability incubated for 48 hrs by MTT assay. The format is functional.
Test [9] deals with HepG2. Kind of test: cells. The following applies: Homo sapiens.
A further test has as its system HSC-2. Kind of test: Cytotoxicity against human HSC-2 cells assessed as reduction in cell viability incubated for 48 hrs by MTT assay. The format is functional.
In another test the test system is Ca9-22. Kind of test: Cytotoxicity against human Ca9-22 cells assessed as reduction in cell viability incubated for 48 hrs by MTT assay. In kind it is functional.
The nature of test [10]: Cytotoxicity against human HPLF cells assessed as reduction in cell viability incubated for 48 hrs by MTT assay. In kind it is functional.
The test system of another test is MCF7. Kind of test: cells. The conditions noted are these: Homo sapiens.
In test [11] the test system is Staphylococcus aureus. Nature of the test: microbe, parasite or virus in culture.
The subject of test [12] is Escherichia coli. Kind of test: microbe, parasite or virus in culture.
Test [13] deals with Mycobacterium tuberculosis. Nature of the test: Antimycobacterial activity against Mycobacterium tuberculosis. In kind it is functional.
In test [14] the test system is Mycolicibacterium smegmatis. Nature of the test: Antimycobacterial activity against Mycobacterium smegmatis. The format is functional.
Test [15] deals with Candida albicans. Kind of test: microbe, parasite or virus in culture.
For test [16], the system named is Staphylococcus aureus. Nature of the test: microbe, parasite or virus in culture. The source holds these as a separate data set.
For test [17], the system named is Rattus norvegicus. Kind of test: Antiinflammatory activity in carrageenan induced rat paw edema model relative to indomethacin. In kind it is functional.
For test [18], the species on record is Mus musculus. Kind of test: Antidepressant activity in Swiss albino mouse assessed as decrease in immobility time by tail suspension test. In kind it is functional.
The species named for test [19] is Mus musculus. Nature of the test: Antidepressant activity in Swiss albino mouse assessed as decrease in immobility time by forced swimming test. The format is functional.
Test [20] deals with Mus musculus. Nature of the test: Anticonvulsant activity in BALB/c mouse assessed as increase in survival rate at 60 mg/kg, ip by PTZ method relative to control. In kind it is functional.
The subject of the next test is Streptococcus pyogenes. Kind of test: Antibacterial activity against Streptococcus pyogenes assessed as inhibition of microbial growth. In kind it is functional.
In test [21] the test system is Candida albicans. Nature of the test: Antifungal activity against Candida albicans. In kind it is functional.
Test [22] deals with Staphylococcus aureus. Kind of test: Antibacterial activity against Staphylococcus aureus assessed as inhibition of microbial growth. In kind it is functional.
A further test deals with Aspergillus clavatus. Nature of the test: Antifungal activity against Aspergillus clavatus. In kind it is functional.
The subject of another test is Aspergillus niger. Nature of the test: Antifungal activity against Aspergillus niger. In kind it is functional.
For test [23], the system named is RAW264.7. Nature of the test: Antiinflammatory activity in LPS-induced mouse RAW264.7 cells assessed as inhibition of LPS induced NO production. The format is functional, cell-based.
In test [24] the test system is RAW264.7. Kind of test: Cytotoxicity against mouse RAW264.7 cells relative to control. In kind it is functional.
In test [25] the test system is HepG2. Nature of the test: Cytotoxicity against human HepG2 cells by SRB assay. In kind it is functional.
The next test relates to HeLa. Nature of the test: Cytotoxicity against human HeLa cells assessed as reduction in cell viability. The format is functional, cell-based.
The subject of test [26] is HepG2. Kind of test: Cytotoxicity against human HepG2 cells assessed as reduction in cell viability. In kind it is functional, cell-based.
Test [27] relates to Escherichia coli. Kind of test: microbe, parasite or virus in culture. This is another data set of the same source.
A further test concerns Pseudomonas aeruginosa. Nature of the test: microbe, parasite or virus in culture.

In brackets after ≈: the same amount, converted by molar mass. Some results are limits rather than exact numbers.

As to `CN(C)CCCN1c2ccccc2CCc2ccccc21` [IMIPRAMINE], the Activity is given as 61.96% in the test listed under Mus musculus [1], -9.33 in the test filed under Mus musculus [3] and 62.12% in the test with Mus musculus [5]. Moreover, the Time in the test listed under Mus musculus [2] and in the test filed under Mus musculus [4] was 29.33 s each time.
On to `Cc1ccc(/C=C/C2=NN(c3ccccc3)C(c3ccc(C)s3)C2)s1` (stereo not given), for which, in the test with Rattus norvegicus [6], the IC50 stood at 0.0017 µM.
Turning to `COc1cc(C2CC(c3ccc(Cl)cc3)=NN2C(N)=S)cc(Br)c1O` (stereo not given), the IC50 in the test with A549 turned out to be 44.1 µM.
Regarding `O=c1[nH]cc(F)c(=O)[nH]1` [FLUOROURACIL], the CC50 (in test [7]; in the test on HSC-3; in [8]; in the test on HSC-2; in the test on Ca9-22; in [10]) was 13 µM in each case. The IC50 came to 33.5 µg/mL (≈ 258 µM) with HepG2 [9] and 30 µg/mL (≈ 231 µM) with MCF7.
As for `COC(=O)C1N=NN(CC(=O)N2N=C(c3ccccc3)CC2c2cccs2)C1C(=O)OC` (stereo not given), the MIC against Staphylococcus aureus [11] and with Escherichia coli [12] was 3.9 µg/mL (≈ 8.56 µM) each time.
With `Clc1ccc(-n2cc(C3CC(c4ccc(-c5ccccc5)cc4)=NN3)c(-c3cccs3)n2)cc1` (stereo not given), the MIC was found to be 1.56 µg/mL (≈ 3.24 µM) in test [13], 7.8 µg/mL (≈ 16.2 µM) in test [14], 1.56 µg/mL (≈ 3.24 µM) in the test on Candida albicans [15] and 1.56 µg/mL (≈ 3.24 µM) against Staphylococcus aureus [16].
Take `COc1ccc(N2N=C(/C=C/c3ccc(C)o3)CC2c2ccc(C)o2)cc1` (stereo not given): the Activity in the test with Rattus norvegicus [17] was determined as 104%.
In the case of `Cc1ccc(/C=C/C2=NN(C(N)=O)C(c3ccc(C)s3)C2)s1` (stereo not given), in the test with Rattus norvegicus [17], the Activity is 103%.
Take `COc1cc(/C=C/C(=O)CC(=O)/C=C/c2ccc(O)c(OC)c2)ccc1O` [CURCUMIN]: in the test with Rattus norvegicus [6], the midpoint of inhibition, the IC50, lay at 0.0534 µM.
With `COc1cc(C2CC(c3ccc(-c4cc(F)cc(F)c4)nc3C)=NN2)cc(OC)c1OC` (stereo not given), the figures for the Time in the test listed under Mus musculus [18] and in the test filed under Mus musculus [19] were 70.33 s and 66.67 s, respectively. Moreover, the Activity was 64.56% in the test listed under Mus musculus [1] and 66.58% in the test with Mus musculus [5].
For the molecule `O=C(Nc1ccc(Cl)cc1)N1N=C(c2ccc(Br)s2)CC1c1c(Cl)cccc1Cl` (stereo not given), the survival at 60 mg/kg in the test on Mus musculus [20] is 95%.
Take `O=C(c1ccncc1)N1N=C(c2ccc([N+](=O)[O-])cc2)CC1c1cc2ccccc2nc1Cl` (stereo not given): the MIC in the test with Streptococcus pyogenes was 12.5 µg/mL; against Candida albicans [21], 12.5 µg/mL (≈ 27.3 µM); in the test with Staphylococcus aureus [22], 12.5 µg/mL; in the test on Aspergillus clavatus it was 12.5 µg/mL (≈ 27.3 µM); in the test on Aspergillus niger it was 12.5 µg/mL (≈ 27.3 µM).
On to `C[C@]12CC[C@H]3[C@@H](CC=C4C[C@@H](O)CC[C@@]43C)[C@@H]1CC[C@@H]2C1=NN(C(N)=S)C(c2cccc(F)c2)C1` (stereo not given in full), for which the half-inhibitory concentration (IC50) with RAW264.7 [23] stood at 1.02 µM. In the test with RAW264.7 [24], this molecule yielded an Activity above 90%.
The molecule `COc1ccc(C2CC(c3cc(OC)c(OC)c(OC)c3)=NN2C(C)=O)cc1OCc1cn(Cc2ccc(F)cc2)nn1` (stereo not given) gave a 50% growth inhibitory concentration (GI50) with HepG2 [25] of 6.7 µM.
With `COc1cc(C2CC(c3ccc(Cl)cc3)=NN2C(N)=S)cc(OC)c1OC` (stereo not given), the concentration for half-maximal inhibition (IC50) stood at 9.37 µM in the test on HeLa and 16 µM in the test on HepG2 [26].
With `COc1ccc(-c2nn(-c3ccc(Cl)cc3)cc2C2CC(c3ccc(-c4ccccc4)cc3)=NN2)cc1` (stereo not given), the MIC (in test [14]; against Candida albicans [15]; against Staphylococcus aureus [16]) was 15.6 µg/mL (≈ 30.9 µM) each time.
In the case of `O=C(c1ccncc1)N1N=C(c2ccc(F)cc2)CC1c1cc2ccccc2nc1Cl` (stereo not given), the MIC in the test on Candida albicans [21], with Escherichia coli [27] and against Pseudomonas aeruginosa was 12.5 µg/mL (≈ 29 µM) each time.
